Laboratory results reported in patent publication US12281329B2, “Compositions and methods for immune cell modulation in adoptive immunotherapies” (Fate Therapeutics, Inc., priority 2016, dated 2025).

How the values were obtained:
[1] = test system: primary AML blasts; experiment: NK cell cytotoxicity against primary AML blasts; assay type: cell-based, human; details: multi-day IL-15 + GSK3i NK cells vs overnight primed
Procedure: (§1) NK Cell Cytotoxicity Assay: Cytotoxicity was determined using a flow cytometry based method based on a previously published method (Kim, et al. J Immunol Methods. 2007 Aug. 31; 325(1-2): 51-66). NK cells were co-cultured with e450-proliferation dye-labelled targets for 4 hours. CellEvent™ Caspase-3/7 Green Flow Cytometry Assay Kit (Lifer Technologies) was used to assay for cell death among target cells, and samples were read on a BD LSRFortessa cytometer. Killing of SKOV-3 targets was quantified using the Incucyte Zoom instrument. SKOV-3 cells were transiently transduced with NucLight-Red BacMam reagent (Essen Biosciences) and co-cultured with the indicated NK cell populations for 74 hours, with images taken on two hour intervals. Caspase 3/7 activity was monitored to indicate target cells undergoing apoptosis using the CellEvent™ Caspase-3/7 Green Detection Reagent. The number of target cells was normalized to SKOV-3 cells cultured alone, and targets undergoing apoptosis were quantified based on caspase 3/7 activity.
Cytotoxicity of CD3/CD19 depleted PBMC cultured multiple days with IL-15 and GSK3i (GSK3i modulated NK cells) versus overnight primed NK cells against primary AML blasts were also compared. Percent specific killing of primary AML blasts from multiple patients was measured by flow cytometry-based cytotoxicity assay.

[2] = test system: K562 cells; experiment: NK cell cytotoxicity assay, K562 target cells; assay type: cell-based; details: 4 hours; NK cells overnight 10 ng/mL IL-15 only or 7 day IL-15 + 5 μM CHIR99021
Procedure: as §1
The ability of GSK3 inhibition to enhance cytotoxicity of NK cells isolated directly from donors was assessed using in vitro killing assays. […] depleted PBMC population was treated overnight with 10 ng/mL IL-15 only (primed), or a 7 day culture combination of 10 ng/mL IL-15 and 5 μM CHIR99021. The target cells for the killing assays included K562 cells, CD20+ Raji cells, HER2+ SKOV3 cells and HER2+A549 cells. The E:T (Effector:Target) ratio applied to each assay ranged from 0.1, 0.5, 1, 5 to 10. After the target cells were incubated with the differently treated NK cells for 4 hours, the respective percentage of specific killing (target cell lysis) was calculated. […] Raji cells are less prone to NK mediated cytotoxicity.
The ability of STING agonist to enhance cytotoxicity of GSK3i multiday modulated NK cells was assessed using in vitro killing assays. […]

[3] = test system: CD20+ Raji cells; experiment: NK cell cytotoxicity assay, Raji target cells; assay type: cell-based, human; details: 4 hours; NK cells overnight IL-15 only or 7 days IL15 + GSK3i
Procedure: as §1
The ability of GSK3 inhibition to enhance cytotoxicity of NK cells isolated directly from donors was assessed using in vitro killing assays. […] After the target cells were incubated with the differently treated NK cells for 4 hours, the respective percentage of specific killing (target cell lysis) was calculated. […]

[4] = test system: NK cells; experiment: NK cell culture with modified K562 feeder cells: proliferation and subtype skewing; assay type: cell-based, human; details: 7 days
Procedure: CD3/19 depleted PBMCs were cultured for 7 days with modified K562 feeder cells in the presence of DMSO (Vehicle), 0.1 uM GSK3i CHIR99021 alone (C), or a combination of 0.1 uM GSK3i CHIR99021, 40 nM MEKi PD0325901, and 1 nM Rapamycin (CPR).

[5] = test system: NK cells; experiment: Feeder-free culture of CD3/CD19 depleted PBMC with IL-15 and GSK3 inhibitor: NK cell expansion and phenotype; assay type: cell-based, human
Procedure: NK Cell Isolation. Healthy adult donor blood was obtained from commercial sources or from GCRC core laboratory of Scripps Research Institute, La Jolla, CA Peripheral blood mononuclear cells (PBMC) were isolated by density gradient centrifugation using Ficoll-Paque PLUS (GE Healthcare: Life Sciences) and then depleted of B and T cells without culturing the PBMC using CD19 Microbeads (Miltenyi Biotec, #130-050-301) and CD3 Microbeads (Miltenyi Biotec, #130-050-101) within 24 to 36 hours according to manufacturer directions.
NK cell culture: CD3/CD19 depleted PBMC (0.5-1×10E6/mL) were cultured in BO medium (2:1 mixture of DMEM, (Corning Cell-Gro #10-017-CV) and Ham's F12 (Corning Cell-Gro #10-080-C) with 10% human AB serum (Valley Biomedical, #HP1022), 100 U/mL penicillin and 100 ug/mL streptomycin (Corning, 30-002-CI), 20 uM 2-mercaptoethanol (Sigma, M3148), 50 uM ethanolamine (Sigma, E0135), 10 ug/mL ascorbic acid (Sigma, A4544), and 1.6 ng/mL sodium selenite (Sigma, S5261). Cells were cultured for 7-8 days (up to four weeks) in medium containing 10 ng/mL recombinant human IL-15 (Life Technologies, PHC9154) with or without GSK3 inhibitor CHIR99021 (BioVision #1677-5), histone lysine methyltransferase inhibitor BIX 01294 (Tocris, 3364), TGF-β1 receptor inhibitor SB-431542 (BioVison, 1674-5), or human interferon alpha (R&D Systems, 11200-1). After culturing, cells were counted using trypan blue or by Cellometer (Nexcelom) and used for flow cytometry and functional assays. Flow cytometry was performed on a BD LSRFortessa and results were analyzed by FlowJo software. Commercially available antibodies to the following surface markers were used for flow cytometry: CD3, CD14, CD16, CD19, CD56, CD57 and NKG2C (BD Biosciences, Biolegend, or R&D Systems). Where indicated, K562 feeder cells were used. Where indicated other modulators and culture reagents were added.
One aspect of the present invention is to provide a method and a system to culture, expand and/or modulate NK cells for adoptive cell therapy. In some embodiments, the method and system for culturing, expanding and/or modulating NK cells is without the use of feeder cells, or feeder cell conditioned medium. Peripheral blood mononuclear cells (PBMC) were isolated from healthy adult donors. The isolated apheresis product (Day 0, pre-depletion; FIG. 2A) was T and B cell depleted using anti-CD19 and CD3 antibodies without pre-depletion culturing (Day 0, post-depletion; FIG. 2B). The post-depletion cell population was then cultured in a feeder free condition with the presence of recombinant human IL-15 (10 ng/mL) and 5 μM CHIR99021, a GSK3 inhibitor, for about 3 to 7 days.

[6] = 7 day culture with GSK3 inhibitor vs cultured without GSK3i
[7] = Day 7 GSK3i culture vs overnight primed

For `Cc1c[nH]c(-c2cnc(NCCNc3ccc(C#N)cn3)nc2-c2ccc(Cl)cc2Cl)n1` [CHIR99021], the “percent specific killing of primary AML blasts” value [1] was “highly and consistently effective”, the “E:T50 (E:T ratio when there is 50% of target cell lysis), K562 killing assay” value [2] was “about 1” and the “E:T50, Raji cells” value [3] was 1-2. The “proliferation of the activated NK cells overall” value ([4]; K562 feeder modified to express IL21 and 41BBL, vs vehicle) was “increased”, the “number of CD57+NK cells” value ([4]; modified K562 feeder cells, vs vehicle control) was “highest” and the “percentage of CD57+ cells in the total NK populations” value ([5]; 7 day culture with GSK3i vs 7 day without GSK3i) was “increased”. The “CD57+ NK cell number, increase on average” value [5, 6] was 7-8 fold, the “CD57+NKG2C+ NK cell number, increase on average” value [5, 6] was 7-8 fold and the “NK cell (CD56+CD3−) percentage in population” value ([5]; Day 7, IL-15 10 ng/mL + 5 μM CHIR99021, feeder free, about 20% post-depletion Day 0) was “about 99%”. For the same molecule, the “remaining T cells (CD56-CD3+) percentage in population” value ([5]; Day 7, IL-15 10 ng/mL + 5 μM CHIR99021, about 1% post-depletion) was 0.25%, the “cell number of CD57+ NK subset, increase on average” value [5, 7] was 5-6 fold and the “cell number of CD57+NKG2C+ NK subset, increase on average” value [5, 7] was 5-6 fold. For the same molecule, the “frequency of CD57+ cells in the culture” value ([5]; short term treatment, 16 hours, comparable to vehicle) was “did not generate a higher frequency”.
